This is an account of results in ChEMBL document CHEMBL1909046, “DrugMatrix in vitro pharmacology data”.

Data set [1] deals with Sigma non-opioid intracellular receptor 1 (Homo sapiens, UniProt Q99720). Nature of the data set: DRUGMATRIX: Sigma1 radioligand binding (ligand: [3H] Haloperidol). The following applies: jurkat; Not Active = under 50% inhibition at 10 µM. The class given is cell membranes, Jurkat, Membrane.
Data set [2] in a line: DRUGMATRIX: GABAA, Chloride Channel, TBOB radioligand binding (ligand: [3H] TBOB). Type of data set: cell membranes, Rattus norvegicus, Wistar, Cerebral cortex, Membrane. The following applies: Not Active = under 50% inhibition at 10 µM.
Data set [3] deals with Cytochrome P450 2C9 (Homo sapiens, UniProt P11712). To be noted: bti-tn-5b1-4.
The target of data set [4] is Mitogen-activated protein kinase 1 (Homo sapiens, UniProt P28482). Nature of the data set: DRUGMATRIX: Protein Serine/Threonine Kinase, ERK2 enzyme inhibition (substrate: Myelin Basic Protein). The following applies: Not Active = under 50% inhibition at 10 µM. Details: species or system Escherichia coli.
Data set [5] has as its target T1, C-X-C chemokine receptor type 2 (Homo sapiens, UniProt P25025). Also: in other assays of this panel Not Active means under 50% inhibition at 10 µM.
T1 sequence (P25025 whole entry): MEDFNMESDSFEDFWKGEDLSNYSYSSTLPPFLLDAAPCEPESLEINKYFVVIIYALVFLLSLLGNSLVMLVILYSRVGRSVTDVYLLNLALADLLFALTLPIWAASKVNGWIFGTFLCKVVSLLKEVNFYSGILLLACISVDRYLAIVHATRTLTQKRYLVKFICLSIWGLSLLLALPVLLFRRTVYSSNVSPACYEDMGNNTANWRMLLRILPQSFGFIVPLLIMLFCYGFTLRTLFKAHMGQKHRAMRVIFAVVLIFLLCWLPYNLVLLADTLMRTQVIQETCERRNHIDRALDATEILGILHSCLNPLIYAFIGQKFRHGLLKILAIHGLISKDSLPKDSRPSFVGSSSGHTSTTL
Type of data set: cell membranes, Membrane. To be noted: cho-k1.

Data set [6] addresses T2, Cytochrome P450 1A2 (Homo sapiens, UniProt P05177).
T2 sequence (P05177 whole entry): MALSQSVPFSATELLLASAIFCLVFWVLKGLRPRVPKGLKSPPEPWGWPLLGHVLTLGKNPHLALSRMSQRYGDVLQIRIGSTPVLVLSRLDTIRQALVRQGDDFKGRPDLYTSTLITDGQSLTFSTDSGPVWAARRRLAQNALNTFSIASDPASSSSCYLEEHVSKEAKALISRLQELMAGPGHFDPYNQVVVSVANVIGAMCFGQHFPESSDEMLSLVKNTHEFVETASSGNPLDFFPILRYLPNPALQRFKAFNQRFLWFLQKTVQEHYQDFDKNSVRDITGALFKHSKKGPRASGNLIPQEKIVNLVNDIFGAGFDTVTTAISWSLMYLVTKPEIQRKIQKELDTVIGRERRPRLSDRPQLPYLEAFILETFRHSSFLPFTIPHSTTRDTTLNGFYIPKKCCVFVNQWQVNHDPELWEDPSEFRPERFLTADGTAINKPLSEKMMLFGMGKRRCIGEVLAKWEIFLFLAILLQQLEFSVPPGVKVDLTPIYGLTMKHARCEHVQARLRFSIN
To be noted: bti-tn-5b1-4.

Data set [7] concerns the target Cytochrome P450 2E1 (Homo sapiens, UniProt P05181). The following applies: bti-tn-5b1-4. Also: in other assays of this panel Not Active means under 50% inhibition at 10 µM.
Data set [8] has as its target Platelet-activating factor receptor (Homo sapiens, UniProt P25105). Nature of the data set: biochemical. To be noted: platelet. Type of data set: tissue-based. Also: in other assays of this panel Not Active means under 50% inhibition at 10 µM.
Data set [9] has as its target Melanocortin receptor 3 (Homo sapiens, UniProt P41968). The class given is cell membranes, Membrane. The following applies: hek293. Also: in other assays of this panel Not Active means under 50% inhibition at 10 µM.
The target of data set [10] is T3, Calcitonin receptor (Homo sapiens, UniProt P30988). Also: in other assays of this panel Not Active means under 50% inhibition at 10 µM.
T3 sequence (P30988 whole entry): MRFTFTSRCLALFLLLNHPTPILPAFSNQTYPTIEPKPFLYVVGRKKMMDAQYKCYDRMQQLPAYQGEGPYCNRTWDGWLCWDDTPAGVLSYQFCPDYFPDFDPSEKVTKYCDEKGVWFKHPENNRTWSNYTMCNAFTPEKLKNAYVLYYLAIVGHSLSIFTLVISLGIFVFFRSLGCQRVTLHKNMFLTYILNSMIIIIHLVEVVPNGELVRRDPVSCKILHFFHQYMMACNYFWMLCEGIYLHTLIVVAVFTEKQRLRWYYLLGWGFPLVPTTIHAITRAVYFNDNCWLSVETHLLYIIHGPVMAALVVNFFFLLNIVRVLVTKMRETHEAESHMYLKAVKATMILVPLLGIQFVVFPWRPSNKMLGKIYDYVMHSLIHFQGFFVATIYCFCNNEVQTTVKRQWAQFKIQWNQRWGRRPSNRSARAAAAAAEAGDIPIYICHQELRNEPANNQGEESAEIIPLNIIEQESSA
Type of data set: cell membranes, Membrane. To be noted: t47d.

The target of data set [11] is Sodium-dependent noradrenaline transporter (Homo sapiens, UniProt P23975). Nature of the data set: DRUGMATRIX: Norepinephrine Transporter radioligand binding (ligand: [125I] RTI-55). The class given is cell membranes, MDCK, Membrane. To be noted: mdck; Not Active = under 50% inhibition at 10 µM.
For data set [12], the target named is Cytochrome P450 2C19 (Homo sapiens, UniProt P33261). The following applies: bti-tn-5b1-4. Also: in other assays of this panel Not Active means under 50% inhibition at 10 µM.
Data set [13] deals with Mitogen-activated protein kinase 14 (Homo sapiens, UniProt Q16539). On the set-up: species or system Escherichia coli.
Data set [14] deals with D(3) dopamine receptor (Homo sapiens, UniProt P35462). In words: DRUGMATRIX: Dopamine D3 radioligand binding (ligand: [3H] Spiperone). Type of data set: cell membranes, CHO, Membrane. To be noted: cho.
Data set [15] addresses Cytochrome P450 2D6 (Homo sapiens, UniProt P10635). To be noted: bti-tn-5b1-4.
Data set [16] has as its target Voltage-gated inwardly rectifying potassium channel KCNH2 (Homo sapiens, UniProt Q12809). The following applies: hek293. Also: in other assays of this panel Not Active means under 50% inhibition at 10 µM.

SMILES strings stand for the structures.

Platelet-activating factor receptor, sequence (P25105 whole entry): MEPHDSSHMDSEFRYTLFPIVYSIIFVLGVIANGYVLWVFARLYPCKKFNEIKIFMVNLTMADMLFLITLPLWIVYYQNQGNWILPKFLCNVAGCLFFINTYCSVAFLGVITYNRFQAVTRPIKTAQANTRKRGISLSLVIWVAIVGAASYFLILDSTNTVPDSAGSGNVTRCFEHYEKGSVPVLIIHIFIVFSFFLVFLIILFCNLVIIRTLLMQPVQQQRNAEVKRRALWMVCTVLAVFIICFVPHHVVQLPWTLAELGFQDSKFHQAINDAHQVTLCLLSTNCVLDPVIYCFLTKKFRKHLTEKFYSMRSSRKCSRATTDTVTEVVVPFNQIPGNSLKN
Melanocortin receptor 3, sequence (P41968 whole entry): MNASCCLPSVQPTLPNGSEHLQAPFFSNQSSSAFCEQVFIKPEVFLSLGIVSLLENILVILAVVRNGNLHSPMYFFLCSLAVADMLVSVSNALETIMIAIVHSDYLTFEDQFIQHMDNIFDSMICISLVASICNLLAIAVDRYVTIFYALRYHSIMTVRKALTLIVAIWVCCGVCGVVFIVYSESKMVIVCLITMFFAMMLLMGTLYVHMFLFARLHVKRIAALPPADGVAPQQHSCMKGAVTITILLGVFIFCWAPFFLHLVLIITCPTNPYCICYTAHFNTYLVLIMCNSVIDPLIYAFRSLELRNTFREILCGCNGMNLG
Cytochrome P450 2C9, sequence (P11712 whole entry): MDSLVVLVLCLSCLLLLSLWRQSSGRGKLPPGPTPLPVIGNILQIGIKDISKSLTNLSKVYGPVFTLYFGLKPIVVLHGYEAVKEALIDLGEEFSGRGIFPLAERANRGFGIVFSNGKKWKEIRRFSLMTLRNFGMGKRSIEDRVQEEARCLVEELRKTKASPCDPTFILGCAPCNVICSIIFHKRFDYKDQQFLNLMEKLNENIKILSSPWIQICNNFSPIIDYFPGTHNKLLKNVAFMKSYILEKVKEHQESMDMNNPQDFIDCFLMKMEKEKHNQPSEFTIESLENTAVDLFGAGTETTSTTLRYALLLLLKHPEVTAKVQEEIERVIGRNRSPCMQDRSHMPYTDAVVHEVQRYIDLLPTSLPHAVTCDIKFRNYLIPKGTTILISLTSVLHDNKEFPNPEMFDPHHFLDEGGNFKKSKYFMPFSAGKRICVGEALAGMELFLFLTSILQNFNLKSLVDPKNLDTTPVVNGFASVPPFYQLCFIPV
Cytochrome P450 2E1, sequence (P05181 whole entry): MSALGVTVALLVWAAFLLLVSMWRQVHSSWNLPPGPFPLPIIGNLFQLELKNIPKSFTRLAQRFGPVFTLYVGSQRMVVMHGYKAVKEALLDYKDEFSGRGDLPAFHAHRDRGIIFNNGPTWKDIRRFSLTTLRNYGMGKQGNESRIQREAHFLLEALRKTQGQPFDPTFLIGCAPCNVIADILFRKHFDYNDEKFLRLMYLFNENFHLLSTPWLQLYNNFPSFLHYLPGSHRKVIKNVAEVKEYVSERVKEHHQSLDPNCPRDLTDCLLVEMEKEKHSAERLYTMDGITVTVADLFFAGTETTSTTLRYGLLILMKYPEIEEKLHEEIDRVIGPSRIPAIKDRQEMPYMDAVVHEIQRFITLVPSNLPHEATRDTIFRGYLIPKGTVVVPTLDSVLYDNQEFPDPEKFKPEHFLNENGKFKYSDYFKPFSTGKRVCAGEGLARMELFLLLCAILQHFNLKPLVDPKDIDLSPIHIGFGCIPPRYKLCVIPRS
Cytochrome P450 2D6, sequence (P10635 whole entry): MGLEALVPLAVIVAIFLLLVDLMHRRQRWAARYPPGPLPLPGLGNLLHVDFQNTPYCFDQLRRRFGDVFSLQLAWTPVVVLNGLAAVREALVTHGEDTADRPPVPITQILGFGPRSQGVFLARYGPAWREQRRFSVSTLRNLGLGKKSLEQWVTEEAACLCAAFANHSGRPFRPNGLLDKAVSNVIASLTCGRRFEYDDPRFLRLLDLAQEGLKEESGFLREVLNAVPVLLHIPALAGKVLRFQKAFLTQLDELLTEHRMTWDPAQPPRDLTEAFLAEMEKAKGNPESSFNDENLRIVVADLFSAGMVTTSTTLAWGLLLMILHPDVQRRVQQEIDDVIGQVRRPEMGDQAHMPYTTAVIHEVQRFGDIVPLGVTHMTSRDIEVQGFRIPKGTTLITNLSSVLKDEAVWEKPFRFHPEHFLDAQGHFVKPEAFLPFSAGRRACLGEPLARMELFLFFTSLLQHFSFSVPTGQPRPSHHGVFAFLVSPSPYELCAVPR
Mitogen-activated protein kinase 1, sequence (P28482 whole entry): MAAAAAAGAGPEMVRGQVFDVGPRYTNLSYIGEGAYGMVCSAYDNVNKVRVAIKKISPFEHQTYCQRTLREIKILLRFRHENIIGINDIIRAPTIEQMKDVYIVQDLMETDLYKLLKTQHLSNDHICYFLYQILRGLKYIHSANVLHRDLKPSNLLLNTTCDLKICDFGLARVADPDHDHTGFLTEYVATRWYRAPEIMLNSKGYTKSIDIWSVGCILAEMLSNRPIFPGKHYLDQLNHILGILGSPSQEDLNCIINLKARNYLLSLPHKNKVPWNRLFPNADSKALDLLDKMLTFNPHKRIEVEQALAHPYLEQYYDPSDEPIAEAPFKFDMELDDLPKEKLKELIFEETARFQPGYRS
Mitogen-activated protein kinase 14, sequence (Q16539 whole entry): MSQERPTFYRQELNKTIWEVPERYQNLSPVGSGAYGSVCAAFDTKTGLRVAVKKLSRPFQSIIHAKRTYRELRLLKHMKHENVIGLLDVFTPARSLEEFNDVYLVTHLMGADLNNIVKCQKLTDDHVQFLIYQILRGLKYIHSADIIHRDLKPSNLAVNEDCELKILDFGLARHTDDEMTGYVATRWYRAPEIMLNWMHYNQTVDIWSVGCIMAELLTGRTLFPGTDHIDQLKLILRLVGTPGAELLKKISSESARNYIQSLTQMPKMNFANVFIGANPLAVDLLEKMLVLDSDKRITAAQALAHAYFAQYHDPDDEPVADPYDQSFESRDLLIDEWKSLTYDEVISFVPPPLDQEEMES
Sigma non-opioid intracellular receptor 1, sequence (Q99720 whole entry): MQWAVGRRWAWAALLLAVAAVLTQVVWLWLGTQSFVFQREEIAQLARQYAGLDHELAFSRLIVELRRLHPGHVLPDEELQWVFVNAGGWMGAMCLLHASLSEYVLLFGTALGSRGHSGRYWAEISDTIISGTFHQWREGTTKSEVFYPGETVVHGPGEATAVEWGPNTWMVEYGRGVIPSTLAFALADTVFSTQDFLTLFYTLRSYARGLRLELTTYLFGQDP
D(3) dopamine receptor, sequence (P35462 whole entry): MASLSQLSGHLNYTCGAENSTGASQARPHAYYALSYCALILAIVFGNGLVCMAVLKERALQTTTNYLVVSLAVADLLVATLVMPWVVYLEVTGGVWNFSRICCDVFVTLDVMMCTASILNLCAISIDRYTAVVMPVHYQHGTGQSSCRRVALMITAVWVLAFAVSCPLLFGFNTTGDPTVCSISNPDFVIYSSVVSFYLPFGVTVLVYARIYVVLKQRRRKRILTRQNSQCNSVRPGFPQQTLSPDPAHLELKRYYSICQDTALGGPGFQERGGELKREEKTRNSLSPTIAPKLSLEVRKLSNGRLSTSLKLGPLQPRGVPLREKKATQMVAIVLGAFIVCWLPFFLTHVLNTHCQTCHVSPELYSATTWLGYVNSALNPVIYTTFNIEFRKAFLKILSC
Sodium-dependent noradrenaline transporter, sequence (P23975 whole entry): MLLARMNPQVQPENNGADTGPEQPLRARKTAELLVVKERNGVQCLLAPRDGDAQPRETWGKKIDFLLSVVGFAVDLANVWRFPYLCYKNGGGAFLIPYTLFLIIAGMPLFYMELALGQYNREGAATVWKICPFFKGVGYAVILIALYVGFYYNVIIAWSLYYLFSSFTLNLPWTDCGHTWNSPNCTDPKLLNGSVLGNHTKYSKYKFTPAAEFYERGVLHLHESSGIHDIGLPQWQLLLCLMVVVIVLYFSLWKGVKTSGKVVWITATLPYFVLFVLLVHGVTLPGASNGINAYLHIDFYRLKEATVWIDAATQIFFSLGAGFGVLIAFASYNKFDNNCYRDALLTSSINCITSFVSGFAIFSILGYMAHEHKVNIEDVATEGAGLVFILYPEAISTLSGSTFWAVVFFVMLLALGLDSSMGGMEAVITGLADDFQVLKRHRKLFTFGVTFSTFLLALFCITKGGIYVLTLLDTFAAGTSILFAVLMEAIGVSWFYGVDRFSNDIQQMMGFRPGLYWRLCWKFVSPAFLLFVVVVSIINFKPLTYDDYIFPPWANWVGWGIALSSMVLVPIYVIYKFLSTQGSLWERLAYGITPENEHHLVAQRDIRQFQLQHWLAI
Cytochrome P450 2C19, sequence (P33261 whole entry): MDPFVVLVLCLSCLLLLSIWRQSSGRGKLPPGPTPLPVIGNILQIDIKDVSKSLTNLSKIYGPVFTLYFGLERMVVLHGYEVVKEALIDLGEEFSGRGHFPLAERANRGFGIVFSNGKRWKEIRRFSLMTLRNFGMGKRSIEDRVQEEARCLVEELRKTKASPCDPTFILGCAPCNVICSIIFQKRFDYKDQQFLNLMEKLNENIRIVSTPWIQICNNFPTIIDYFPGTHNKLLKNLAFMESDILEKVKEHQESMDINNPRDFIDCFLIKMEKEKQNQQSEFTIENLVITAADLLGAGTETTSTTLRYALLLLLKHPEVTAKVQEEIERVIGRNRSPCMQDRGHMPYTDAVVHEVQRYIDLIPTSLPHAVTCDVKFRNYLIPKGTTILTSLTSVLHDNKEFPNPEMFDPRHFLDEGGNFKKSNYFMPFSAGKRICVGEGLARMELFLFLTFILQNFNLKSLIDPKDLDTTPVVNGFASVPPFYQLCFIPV

Consider `CC1=C(/C=C/C(C)=C/C=C/C(C)=C\C(=O)O)C(C)(C)CCC1` [ISOTRETINOIN], for which the IC50 result in data set [1] is “Not Active”; in data set [2], “Not Active”; in data set [3], “Not Active”; in [4] (read-out: IC50), 0.462 µM; in data set [5], “Not Active”; in data set [6] it was “Not Active”. Moreover, the IC50 entry in [7], in data set [8], in [9], in data set [10], in data set [11] and in data set [12] was “Not Active” in each case. Besides, the figures for the IC50 in [13] (read-out: IC50), in [14] and in [15] were 2.53 µM, “Not Active” and “Not Active”, respectively. For the same compound, the Ki entry in data set [2], in data set [3], in [6], in data set [7], in data set [12] and in data set [15] was “Not Active” each time.

As for `NCCCC[C@H](N[C@@H](CCc1ccccc1)C(=O)O)C(=O)N1CCC[C@H]1C(=O)O` [LISINOPRIL ANHYDROUS], the IC50 entry in data set [1], in data set [2], in data set [3], in [4], in data set [5] and in data set [7] was “Not Active” throughout. The IC50 result in data set [8], in [9], in data set [10], in data set [11], in data set [12] and in data set [13] was “Not Active” each time. For the same compound, the IC50 result in data set [14] and in data set [15] was “Not Active” throughout. The Ki entry in [2], in data set [3], in data set [7], in [12] and in [15] was “Not Active” in each case.

Take `NC(=O)c1ncn([C@@H]2O[C@H](CO)[C@@H](O)[C@H]2O)n1` [RIBAVIRIN]: the IC50 entry in data set [1], in [2], in data set [4], in data set [5], in data set [6] and in data set [7] was “Not Active” each time. For the same compound, the IC50 result in data set [8], in data set [9], in [10], in [16], in data set [11] and in data set [12] was “Not Active” throughout. In addition, the IC50 entry in data set [13], in [14] and in data set [15] was “Not Active” each time. Further, the Ki result in data set [2], in data set [6], in data set [7], in data set [16], in data set [12] and in [15] was “Not Active” in each case.
